# Measured values as given in patent US11214594B2, “Antimicrobial peptide having synergistic antibacterial effect with antibiotics on multidrug resistant bacteria, and use thereof” (priority 2016, dated 2022).
# Read-outs that look alike come from different tables or passages of the source. Where a SMILES comes first, the peptide text is derived from it.
# Assays:
# [1] = test system: MDREC 1229; assay: microbe, parasite or virus in culture; type: cell-based, Escherichia coli
# Description: (§1) For the antibacterial activity, a minimal inhibitory concentration (MIC) of a peptide in which fungus bodies were not split in an MH medium with sufficient nutrients was measured.
# (§2) Specifically, the strains described in the following [Table 2] were purchased and diluted with an MH medium such that the number of bacteria was 2×10^6 colony-forming units (CFUs), 100 μl of each of the diluted strains was aliquoted into a 96-well microtiter plate, and then 100 μl of a peptide solution diluted with the MH medium (solution diluted stepwise at 2: 1) was added to each well.
# [2] = test system: MDREC 1238; type: cell-based, Escherichia coli
# Description: as §1, §2
# [3] = test system: MDRPA 2002; type: cell-based, Pseudomonas aeruginosa
# Description: as §1, §2
# [4] = test system: MDRPA 2003; type: cell-based, Pseudomonas aeruginosa
# Description: as §1, §2
# [5] = test system: A. baumannii; assay: microbe, parasite or virus in culture; type: cell-based, Acinetobacter baumannii
# Description: as §1, §2
# [6] = test system: MDRAB 12035; assay: microbe, parasite or virus in culture; type: cell-based, Acinetobacter baumannii
# Description: as §1, §2
# [7] = test system: MDRAB 12036; type: cell-based, Acinetobacter baumannii
# Description: as §1, §2
# [8] = test system: MDRST 8007; assay: Minimal inhibitory concentration (MIC), single agent; type: cell-based, Salmonella typhimurium; settings: agent alone
# Description: as §1, §2
# [9] = test system: MDRST 8009; type: cell-based, Salmonella typhimurium; settings: agent alone
# Description: as §1, §2
# [10] = test system: S. epidermidis; assay: microbe, parasite or virus in culture; type: cell-based, Staphylococcus epidermidis
# Description: as §1, §2
# [11] = test system: MRSA 3114; type: cell-based, Staphylococcus aureus
# Description: as §1, §2
# [12] = test system: MRSA 3126; type: cell-based, Staphylococcus aureus
# Description: as §1, §2
# [13] = test system: E. coli; assay: microbe, parasite or virus in culture; type: cell-based, Escherichia coli
# Description: as §1, §2
# [14] = test system: P. aeruginosa; assay: microbe, parasite or virus in culture; type: cell-based, Pseudomonas aeruginosa
# Description: as §1, §2
# [15] = test system: S. typhimurium; assay: microbe, parasite or virus in culture; type: cell-based, Salmonella typhimurium
# Description: as §1, §2
# [16] = test system: B. subtilis; assay: microbe, parasite or virus in culture; type: cell-based, Bacillus subtilis
# Description: as §1, §2
# [17] = test system: S. aureus; assay: microbe, parasite or virus in culture; type: cell-based, Staphylococcus aureus
# Description: as §1, §2
# [18] = test system: E. coli; assay: MIC of antibiotic during combined treatment with antimicrobial peptide; type: cell-based, Escherichia coli; settings: E. coli and A. baumannii; antibiotic MIC with papiliocin
# Description: Thereafter, the MIC value of each mixed solution was determined by diluting the antibiotic solution with the MH medium, adding 50 μl of the diluted solution to each well, and performing an experiment even under a reversed condition.
# [19] = test system: E. coli; type: cell-based, Escherichia coli; settings: for Peptide MIC during treatment with erythromycin / Peptide MIC during treatment with linezolid / Peptide MIC during treatment with vancomycin: E. coli
# Description: (§3) Specifically, the strains described in [Table 2] were prepared and diluted with an MH medium such that the number of bacteria was 2×10^6 colony-forming units (CFUs) per 1 ml, 100 μl of the diluted strains was each aliquoted into a 96-well microtiter plate, and then 50 μl of a peptide solution diluted with the MH medium from the MIC value (solution diluted stepwise at 2: 1) was added to each well. Thereafter, the MIC value of each mixed solution was determined by diluting the antibiotic solution with the MH medium, adding 50 μl of the diluted solution to each well, and performing an experiment even under a reversed condition.
# [20] = test system: A. baumannii; assay: MIC of antimicrobial peptide during combined treatment with antibiotic; type: cell-based, Acinetobacter baumannii
# Description: as §3
# [21] = test system: gram-negative bacteria; assay: MIC, summary statements for gram-negative bacteria; type: cell-based; settings: gram-negative bacteria
# Description: as §1, §2
# [22] = test system: gram-positive bacteria; assay: MIC, summary statements for gram-positive bacteria; type: cell-based
# Description: as §1, §2
# [23] = linezolid 32 μg/ml (Conc./MIC 1/8)
# [24] = linezolid 64 μg/ml (Conc./MIC 1/4)
# [25] = vancomycin 512 μg/ml (Conc./MIC 1/2)
# [26] = vancomycin 1024 μg/ml (Conc./MIC 1)
smiles,measurement,setting,value
"CC[C@H](C)[C@H](NC(=O)CN)C(=O)NCC(=O)N[C@@H](C)C(=O)N[C@H](C(=O)N[C@@H](CC(C)C)C(=O)N[C@@H](CCCCN)C(=O)N[C@H](C(=O)N[C@@H](CC(C)C)C(=O)N[C@H](C(=O)N[C@H](C(=O)NCC(=O)N[C@@H](CC(C)C)C(=O)N1CCC[C@H]1C(=O)N[C@@H](C)C(=O)N[C@@H](CC(C)C)C(=O)N[C@H](C(=O)N[C@@H](CO)C(=O)N[C@@H](Cc1c[nH]c2ccccc12)C(=O)N[C@H](C(=O)N[C@@H](CCCCN)C(=O)N[C@@H](CCCNC(=N)N)C(=O)N[C@@H](CCCCN)C(=O)N[C@@H](CCCNC(=N)N)C(=O)N[C@@H](CCC(N)=O)C(=O)N[C@@H](CCC(N)=O)C(N)=O)[C@@H](C)CC)[C@@H](C)CC)[C@@H](C)O)[C@@H](C)O)C(C)C)C(C)C [Melittin, reference compound]",Minimal inhibitory concentration MIC,"[1]; MDREC 1229, agent alone",16 mg/L
same,Minimal inhibitory concentration MIC,"[2]; MDREC 1238, agent alone",32 mg/L
same,Minimal inhibitory concentration MIC,"[3]; MDRPA 2002, agent alone",16 mg/L
same,Minimal inhibitory concentration MIC,"[4]; MDRPA 2003, agent alone",16 mg/L
same,Minimal inhibitory concentration MIC,"[5]; A. baumannii, agent alone",8 mg/L
same,Minimal inhibitory concentration MIC,"[6]; MDRAB 12035, agent alone",8 mg/L
same,Minimal inhibitory concentration MIC,"[7]; MDRAB 12036, agent alone",16 mg/L
same,Minimal inhibitory concentration MIC,[8],32 mg/L
same,Minimal inhibitory concentration MIC,[9],32 mg/L
same,Minimal inhibitory concentration MIC,"[10]; S. epidermidis, agent alone",16 mg/L
same,Minimal inhibitory concentration MIC,"[11]; MRSA 3114, agent alone",8 mg/L
same,Minimal inhibitory concentration MIC,"[12]; MRSA 3126, agent alone",16 mg/L
"CC[C@H](C)[C@H](NC(=O)CNC(=O)[C@H](CC(=O)O)NC(=O)[C@H](CCCNC(=N)N)NC(=O)[C@@H](NC(=O)[C@H](CC(N)=O)NC(=O)[C@H](CCCNC(=N)N)NC(=O)CNC(=O)[C@@H](NC(=O)[C@H](CCCCN)NC(=O)[C@H](CCC(=O)O)NC(=O)[C@@H](NC(=O)[C@H](CCCCN)NC(=O)[C@H](CCCCN)NC(=O)[C@H](Cc1ccccc1)NC(=O)[C@@H](NC(=O)[C@H](CCCCN)NC(=O)[C@H](Cc1c[nH]c2ccccc12)NC(=O)[C@@H](N)CCCNC(=N)N)[C@@H](C)CC)[C@@H](C)CC)C(C)C)C(C)C)C(=O)N[C@H](C(=O)N[C@@H](CCCCN)C(=O)N[C@@H](C)C(=O)NCC(=O)N1CCC[C@H]1C(=O)N[C@@H](C)C(=O)N[C@H](C(=O)N[C@@H](C)C(=O)N[C@H](C(=O)N[C@H](C(=O)NCC(=O)N[C@@H](CCC(N)=O)C(=O)N[C@@H](C)C(=O)N[C@@H](C)C(=O)N[C@H](C(=O)N[C@H](C(=O)N[C@H](C(=O)N[C@@H](CCCCN)C(N)=O)C(C)C)C(C)C)[C@@H](C)O)C(C)C)C(C)C)C(C)C)[C@@H](C)CC [Papiliocin, reference compound] (H-RWKIFKKIEKVGRNVRDGIIKAGPAVAVVGQAATVVK-NH2; N-terminus and C-terminus assumed)","Peptide MIC, single treatment",[13],8 mg/L
same,Minimal inhibitory concentration MIC,[13]; 16 h,8 mg/L
same,Minimal inhibitory concentration MIC,[1],8 mg/L
same,Minimal inhibitory concentration MIC,[2],16 mg/L
same,Minimal inhibitory concentration MIC,[14],16 mg/L
same,Minimal inhibitory concentration MIC,[3],16 mg/L
same,Minimal inhibitory concentration MIC,[4],16 mg/L
same,Minimal inhibitory concentration MIC,[5],8 mg/L
same,"Peptide MIC, peptide alone",[5],8 mg/L
same,Minimal inhibitory concentration MIC,[6],8 mg/L
same,Minimal inhibitory concentration MIC,[7],16 mg/L
same,Minimal inhibitory concentration MIC,[15],16 mg/L
same,Minimal inhibitory concentration MIC,[16],>128 mg/L
same,Minimal inhibitory concentration MIC,[10],>128 mg/L
same,Minimal inhibitory concentration MIC,[17],>128 mg/L
same,Minimal inhibitory concentration MIC,[11]; 3114,>128 mg/L
same,Minimal inhibitory concentration MIC,[12]; 3126,>128 mg/L
same,Synergistic effect of combination with the antibiotics (in words),[18],does not have a great synergistic effect
same,Peptide MIC during treatment with erythromycin,[19]; erythromycin 16 μg/ml (Conc./MIC 1/8),4 mg/L
same,Peptide MIC during treatment with erythromycin,[19]; erythromycin 32 μg/ml (Conc./MIC 1/4),4 mg/L
same,Peptide MIC during treatment with erythromycin,[19]; erythromycin 64 μg/ml (Conc./MIC 1/2),4 mg/L
same,Peptide MIC during treatment with erythromycin,[19]; erythromycin […] (Conc./MIC 1),0 mg/L
same,Peptide MIC during treatment with linezolid,[19]; [23],8 mg/L
same,Peptide MIC during treatment with linezolid,[19]; [24],4 mg/L
same,Peptide MIC during treatment with linezolid,[19]; linezolid […] (Conc./MIC 1),0 mg/L
same,Peptide MIC during treatment with linezolid,[19]; linezolid […] (Conc./MIC 1/2),4 mg/L
same,Peptide MIC during treatment with vancomycin,[19]; [25],2 mg/L
same,Peptide MIC during treatment with vancomycin,[19]; [26],0 mg/L
same,Peptide MIC during treatment with vancomycin,[19]; vancomycin […] (Conc./MIC 1/4),2 mg/L
same,Peptide MIC during treatment with vancomycin,[19]; vancomycin […] (Conc./MIC 1/8),4 mg/L
same,Synergistic effect on peptide MIC when mixed with antibiotics (in words),[19]; papiliocin as comparative control (Table 34),does not have a synergistic effect
same,Peptide MIC during treatment with erythromycin,[20]; erythromycin 4 μg/ml (Conc./MIC 1/8),8 mg/L
same,Peptide MIC during treatment with erythromycin,[20]; erythromycin 8 μg/ml (Conc./MIC 1/4),4 mg/L
same,Peptide MIC during treatment with erythromycin,[20]; erythromycin 16 μg/ml (Conc./MIC 1/2),4 mg/L
same,Peptide MIC during treatment with erythromycin,[20]; erythromycin 32 μg/ml (Conc./MIC 1),0 mg/L
same,Peptide MIC during treatment with linezolid,[20]; [23],8 mg/L
same,Peptide MIC during treatment with linezolid,[20]; [24],4 mg/L
same,Peptide MIC during treatment with linezolid,[20]; linezolid […] (Conc./MIC 1),0 mg/L
same,Peptide MIC during treatment with linezolid,[20]; linezolid […] (Conc./MIC 1/2),4 mg/L
same,Peptide MIC during treatment with vancomycin,[20]; [25],2 mg/L
same,Peptide MIC during treatment with vancomycin,[20]; [26],0 mg/L
same,Peptide MIC during treatment with vancomycin,[20]; vancomycin […] (Conc./MIC 1/4),2 mg/L
same,Peptide MIC during treatment with vancomycin,[20]; vancomycin […] (Conc./MIC 1/8),4 mg/L
same,Antibacterial activity (in words),[21],very high antibacterial activity
same,Antibacterial activity (in words),[22],very low antibacterial activity
